Test results taken from ChEMBL document CHEMBL5260838 (J Med Chem, 2019).

Experiments:
[1] = biological target: Cytochrome P450 3A4 (Homo sapiens, UniProt P08684); experiment: Inhibition of CYP3A4 (unknown origin); assay type: ADME
[2] = biological target: T1, Cytochrome P450 1A2 (Homo sapiens, UniProt P05177); experiment: Inhibition of CYP1A2 (unknown origin); assay type: ADME
T1 sequence (P05177 whole entry): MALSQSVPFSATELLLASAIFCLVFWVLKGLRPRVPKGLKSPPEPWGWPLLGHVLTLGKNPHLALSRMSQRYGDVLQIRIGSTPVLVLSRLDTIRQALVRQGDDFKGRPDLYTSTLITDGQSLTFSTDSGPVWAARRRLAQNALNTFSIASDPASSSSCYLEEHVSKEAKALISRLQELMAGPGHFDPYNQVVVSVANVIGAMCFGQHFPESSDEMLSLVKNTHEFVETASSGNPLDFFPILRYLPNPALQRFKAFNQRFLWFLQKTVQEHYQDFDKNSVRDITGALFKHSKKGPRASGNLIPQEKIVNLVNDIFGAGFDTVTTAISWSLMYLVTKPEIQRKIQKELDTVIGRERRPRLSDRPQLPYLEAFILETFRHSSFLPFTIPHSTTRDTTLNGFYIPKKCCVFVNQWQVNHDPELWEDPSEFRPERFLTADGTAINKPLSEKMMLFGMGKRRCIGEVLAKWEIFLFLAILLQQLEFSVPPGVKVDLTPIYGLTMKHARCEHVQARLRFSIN

[3] = biological target: Cytochrome P450 2C9 (Homo sapiens, UniProt P11712); experiment: Inhibition of CYP2C9 (unknown origin); assay type: ADME
[4] = biological target: Cytochrome P450 2D6 (Homo sapiens, UniProt P10635); experiment: Inhibition of CYP2D6 (unknown origin); assay type: ADME
Cytochrome P450 2D6, sequence (P10635 whole entry): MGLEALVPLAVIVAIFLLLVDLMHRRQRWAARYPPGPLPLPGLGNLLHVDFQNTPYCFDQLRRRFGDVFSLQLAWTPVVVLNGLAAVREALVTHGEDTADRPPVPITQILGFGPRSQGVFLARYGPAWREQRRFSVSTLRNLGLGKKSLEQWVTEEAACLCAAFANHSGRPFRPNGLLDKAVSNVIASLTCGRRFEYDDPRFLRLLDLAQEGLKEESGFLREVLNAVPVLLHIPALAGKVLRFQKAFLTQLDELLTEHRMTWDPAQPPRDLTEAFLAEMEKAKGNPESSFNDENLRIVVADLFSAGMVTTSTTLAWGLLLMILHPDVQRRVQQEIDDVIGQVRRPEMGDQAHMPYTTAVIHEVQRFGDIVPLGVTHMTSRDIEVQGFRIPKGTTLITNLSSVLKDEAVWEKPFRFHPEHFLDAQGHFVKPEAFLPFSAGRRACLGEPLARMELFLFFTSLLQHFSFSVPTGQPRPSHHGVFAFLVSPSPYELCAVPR

[5] = Protein binding in human plasma; assay type: ADME, cell-free; details: read-out: PPB (converted)
[6] = Protein binding in mouse plasma; assay type: ADME, cell-free; details: read-out: PPB (converted)
[7] = Lipophilicity, logD of the compound at pH 7.4; assay type: physicochemical; details: buffer, read-out: logD
[8] = biological target: Sodium channel protein type 9 subunit alpha (Mus musculus, UniProt Q62205); experiment: Inhibition of mouse Nav1.7 at -60 mV holding potential by PatchXpress automated voltage clamp electrophysiology technique
[9] = biological target: Sodium channel protein type 9 subunit alpha (Rattus norvegicus, UniProt O08562); experiment: Inhibition of rat Nav1.7 at -60 mV holding potential by PatchXpress automated voltage clamp electrophysiology technique
Sodium channel protein type 9 subunit alpha (Rattus norvegicus, UniProt O08562), sequence (O08562 whole entry): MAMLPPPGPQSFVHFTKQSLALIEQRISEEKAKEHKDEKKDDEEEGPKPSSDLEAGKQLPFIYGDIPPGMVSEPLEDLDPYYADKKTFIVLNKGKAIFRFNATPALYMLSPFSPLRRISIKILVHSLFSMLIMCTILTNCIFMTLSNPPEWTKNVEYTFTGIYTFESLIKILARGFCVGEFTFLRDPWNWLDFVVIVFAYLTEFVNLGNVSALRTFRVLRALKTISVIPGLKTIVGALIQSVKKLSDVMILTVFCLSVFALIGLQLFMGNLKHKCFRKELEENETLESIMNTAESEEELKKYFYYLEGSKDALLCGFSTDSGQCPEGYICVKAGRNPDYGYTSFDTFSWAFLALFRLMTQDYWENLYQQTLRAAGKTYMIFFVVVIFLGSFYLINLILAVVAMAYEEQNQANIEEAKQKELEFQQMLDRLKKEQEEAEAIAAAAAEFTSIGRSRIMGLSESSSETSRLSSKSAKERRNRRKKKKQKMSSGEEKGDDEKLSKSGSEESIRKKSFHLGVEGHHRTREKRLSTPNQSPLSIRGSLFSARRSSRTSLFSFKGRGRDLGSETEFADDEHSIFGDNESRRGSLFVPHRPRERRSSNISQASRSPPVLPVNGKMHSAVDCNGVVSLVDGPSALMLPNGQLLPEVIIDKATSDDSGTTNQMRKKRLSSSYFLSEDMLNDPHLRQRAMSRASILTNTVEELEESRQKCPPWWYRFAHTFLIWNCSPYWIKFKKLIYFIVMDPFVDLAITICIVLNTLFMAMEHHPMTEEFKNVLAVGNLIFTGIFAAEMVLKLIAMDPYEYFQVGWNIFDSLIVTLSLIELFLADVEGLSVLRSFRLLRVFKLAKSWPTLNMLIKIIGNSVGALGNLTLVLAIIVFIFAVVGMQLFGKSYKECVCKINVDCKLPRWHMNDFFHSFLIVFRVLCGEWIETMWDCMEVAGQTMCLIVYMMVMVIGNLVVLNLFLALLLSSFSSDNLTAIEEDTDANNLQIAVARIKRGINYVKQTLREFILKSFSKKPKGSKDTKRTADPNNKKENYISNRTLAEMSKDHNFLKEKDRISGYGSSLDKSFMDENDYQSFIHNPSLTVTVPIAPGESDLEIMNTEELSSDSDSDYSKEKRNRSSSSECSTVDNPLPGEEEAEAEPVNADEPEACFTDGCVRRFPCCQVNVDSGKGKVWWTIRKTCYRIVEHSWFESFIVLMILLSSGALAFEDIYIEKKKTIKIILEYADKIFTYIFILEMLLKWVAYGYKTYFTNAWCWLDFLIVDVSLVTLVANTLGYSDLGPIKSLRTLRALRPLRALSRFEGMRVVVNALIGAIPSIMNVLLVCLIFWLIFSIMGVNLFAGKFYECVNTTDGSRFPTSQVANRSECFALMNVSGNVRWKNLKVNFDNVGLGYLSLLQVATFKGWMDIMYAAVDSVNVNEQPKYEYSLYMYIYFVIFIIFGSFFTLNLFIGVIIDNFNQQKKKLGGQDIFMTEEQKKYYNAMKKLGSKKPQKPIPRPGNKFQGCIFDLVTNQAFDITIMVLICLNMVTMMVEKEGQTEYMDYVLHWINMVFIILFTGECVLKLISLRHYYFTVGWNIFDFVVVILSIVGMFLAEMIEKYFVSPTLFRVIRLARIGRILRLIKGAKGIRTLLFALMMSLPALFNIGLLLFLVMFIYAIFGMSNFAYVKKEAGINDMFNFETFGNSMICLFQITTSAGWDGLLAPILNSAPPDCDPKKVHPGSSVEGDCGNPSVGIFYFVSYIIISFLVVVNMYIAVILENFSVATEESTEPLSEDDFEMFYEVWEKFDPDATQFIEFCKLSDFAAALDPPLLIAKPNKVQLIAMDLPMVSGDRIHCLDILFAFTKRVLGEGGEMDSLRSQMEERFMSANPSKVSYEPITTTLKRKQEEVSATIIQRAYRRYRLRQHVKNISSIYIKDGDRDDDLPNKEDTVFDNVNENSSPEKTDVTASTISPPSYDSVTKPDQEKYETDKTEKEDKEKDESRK

[10] = biological target: Sodium channel protein type 5 subunit alpha (Homo sapiens, UniProt Q14524); experiment: Inhibition of human Nav1.5 alpha subunit expressed in HEK293 cells co-expressing beta1 subunit at -60 mV holding potential by PatchXpress automated voltage clamp electrophysiology technique; assay type: cell-based
Sodium channel protein type 5 subunit alpha, sequence (Q14524 whole entry): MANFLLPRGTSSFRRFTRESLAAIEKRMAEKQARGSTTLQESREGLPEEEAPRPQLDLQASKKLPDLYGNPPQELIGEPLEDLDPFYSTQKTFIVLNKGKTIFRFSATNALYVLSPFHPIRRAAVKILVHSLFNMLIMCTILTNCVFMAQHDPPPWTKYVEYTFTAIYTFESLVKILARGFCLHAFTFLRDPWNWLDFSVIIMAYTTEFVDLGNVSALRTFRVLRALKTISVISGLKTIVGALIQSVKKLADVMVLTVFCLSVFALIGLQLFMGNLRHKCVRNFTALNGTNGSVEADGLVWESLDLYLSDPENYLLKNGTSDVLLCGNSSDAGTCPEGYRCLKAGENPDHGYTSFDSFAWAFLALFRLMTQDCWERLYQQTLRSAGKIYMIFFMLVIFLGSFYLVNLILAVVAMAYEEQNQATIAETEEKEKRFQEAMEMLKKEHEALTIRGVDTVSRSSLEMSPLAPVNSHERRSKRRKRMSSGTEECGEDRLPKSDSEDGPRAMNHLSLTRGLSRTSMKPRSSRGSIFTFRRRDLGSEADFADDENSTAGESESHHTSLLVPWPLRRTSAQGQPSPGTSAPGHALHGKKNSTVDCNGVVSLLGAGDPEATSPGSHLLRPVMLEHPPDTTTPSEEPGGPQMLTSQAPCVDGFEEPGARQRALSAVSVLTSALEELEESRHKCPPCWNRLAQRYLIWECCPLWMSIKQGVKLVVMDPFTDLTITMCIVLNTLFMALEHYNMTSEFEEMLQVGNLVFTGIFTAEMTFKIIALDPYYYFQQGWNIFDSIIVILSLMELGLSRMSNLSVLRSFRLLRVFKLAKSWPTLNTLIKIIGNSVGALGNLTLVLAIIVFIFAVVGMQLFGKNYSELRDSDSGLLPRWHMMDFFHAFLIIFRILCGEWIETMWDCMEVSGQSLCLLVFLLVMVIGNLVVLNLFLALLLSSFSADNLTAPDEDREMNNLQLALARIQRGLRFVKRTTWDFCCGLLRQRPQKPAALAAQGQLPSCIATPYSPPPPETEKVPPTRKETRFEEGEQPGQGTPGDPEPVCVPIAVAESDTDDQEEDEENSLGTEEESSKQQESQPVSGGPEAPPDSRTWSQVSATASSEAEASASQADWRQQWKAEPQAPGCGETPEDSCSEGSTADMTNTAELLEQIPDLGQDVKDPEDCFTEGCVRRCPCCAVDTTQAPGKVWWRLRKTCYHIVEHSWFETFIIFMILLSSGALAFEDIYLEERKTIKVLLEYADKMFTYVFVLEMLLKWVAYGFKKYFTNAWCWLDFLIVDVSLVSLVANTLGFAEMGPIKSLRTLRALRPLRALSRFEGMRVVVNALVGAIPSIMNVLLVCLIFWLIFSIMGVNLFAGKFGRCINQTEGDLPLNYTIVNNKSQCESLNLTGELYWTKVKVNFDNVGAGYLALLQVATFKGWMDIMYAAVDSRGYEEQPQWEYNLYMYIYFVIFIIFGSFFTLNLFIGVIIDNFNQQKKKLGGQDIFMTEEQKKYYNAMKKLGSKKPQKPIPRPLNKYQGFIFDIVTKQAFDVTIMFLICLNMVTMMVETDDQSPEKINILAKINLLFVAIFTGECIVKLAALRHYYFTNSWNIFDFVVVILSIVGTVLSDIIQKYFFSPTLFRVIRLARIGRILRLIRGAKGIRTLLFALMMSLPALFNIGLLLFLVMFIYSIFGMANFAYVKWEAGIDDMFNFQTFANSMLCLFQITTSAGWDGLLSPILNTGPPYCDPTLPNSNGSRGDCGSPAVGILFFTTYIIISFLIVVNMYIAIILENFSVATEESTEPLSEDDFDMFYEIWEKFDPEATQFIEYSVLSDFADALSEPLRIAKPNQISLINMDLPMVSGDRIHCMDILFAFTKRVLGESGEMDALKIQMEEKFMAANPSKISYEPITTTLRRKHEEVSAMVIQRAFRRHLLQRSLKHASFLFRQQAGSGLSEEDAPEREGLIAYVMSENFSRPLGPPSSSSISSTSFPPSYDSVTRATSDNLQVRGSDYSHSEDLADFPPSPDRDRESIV

[11] = Efflux ratio of apparent permeability across basolateral to apical side over apical to basolateral side in MDCK1 cells; assay type: ADME, cell-based, Canis lupus familiaris; details: dog, MDCK
[12] = system: MDR1; experiment: Apparent permeability from apical to basolateral side in MDCK1 cells expressing MDR1; assay type: ADME, cell-based, Canis lupus familiaris; details: dog, MDCK-MDR1
[13] = system: mouse breast cancer resistant protein (Bcrp); experiment: Apparent permeability from apical to basolateral side in MDCK-II cells expressing mouse breast cancer resistant protein; assay type: ADME, cell-based, Canis lupus familiaris; details: dog
[14] = system: mouse breast cancer resistant protein (Bcrp); experiment: Efflux ratio of apparent permeability across basolateral to apical side over apical to basolateral side MDCK-II cells expressing mouse breast cancer resistant protein; assay type: ADME, cell-based, Canis lupus familiaris; details: dog
[15] = organism: Homo sapiens; experiment: Inhibition of voltage-gated sodium channel (unknown origin) at 10 uM relative to control
[16] = Volume of distribution at steady state in FVB mouse at 1 mg/kg, iv; assay type: ADME, organism-based; details: in vivo, iv, 1 mg/kg
[17] = Cmax in FVB mouse at 30 mg/kg, po; assay type: ADME, organism-based; set-up: dose 30 mg/kg, route po; details: in vivo
[18] = Half-life in Sprague-Dawley rat at 1 mg/kg, iv; assay type: ADME, organism-based; details: in vivo
[19] = Volume of distribution at steady state in Sprague-Dawley rat at 1 mg/kg, iv; assay type: ADME, organism-based; details: in vivo, read-out: Vdss
[20] = Cmax in Sprague-Dawley rat at 5 mg/kg, po; assay type: ADME, organism-based; set-up: dose 5 mg/kg, route po; details: in vivo
[21] = Oral bioavailability in Sprague-Dawley rat at 5 mg/kg; assay type: ADME, organism-based; details: in vivo
[22] = Half-life in Beagle dog at 0.5 mg/kg, iv; assay type: ADME, organism-based, Canis lupus familiaris; details: in vivo
[23] = AUC in Beagle dog at 1 mg/kg, po; assay type: ADME, organism-based, Canis lupus familiaris; set-up: dose 1 mg/kg, route po; details: in vivo
[24] = system: Mus musculus; experiment: Antinociceptive activity against aconitine-induced pain in FVB mouse model expressing human Nav 1.7 I848T mutant assessed as reduction in nociceptive behavior at 0.3 mg/kg, po administered 120 mins prior to aconitine administration and measured after 70 mins relative to control; assay type: functional; set-up: scale not given: the % may be the effect or the level left; details: time 190 min, 3.167 h
[25] = system: Mus musculus; experiment: Antinociceptive activity against aconitine-induced pain in FVB mouse model expressing human Nav 1.7 I848T mutant assessed as reduction in nociceptive behavior at 1 mg/kg, po administered 120 mins prior to aconitine administration and measured after 70 mins relative to control; assay type: functional; set-up: scale not given: the % may be the effect or the level left; details: time 190 min, 3.167 h
[26] = Drug concentration in plasma of FVB mouse model of aconitine-induced pain expressing human Nav1.7 I848T mutant at 10 mg/kg, po administered 120 mins prior to aconitine administered and measured after 70 mins by UPLC-ESI MS/MS analysis; assay type: ADME, organism-based; details: time 190 min
[27] = Drug concentration in plasma of orally dosed formalin-induced FVB mouse model of pain measured after 3 hrs by UPLC-ESI […] analysis; assay type: ADME, organism-based; details: route po
[28] = Toxicity in FVB mouse assessed as tolerance; details: in vivo

Cytochrome P450 3A4, sequence (P08684 whole entry): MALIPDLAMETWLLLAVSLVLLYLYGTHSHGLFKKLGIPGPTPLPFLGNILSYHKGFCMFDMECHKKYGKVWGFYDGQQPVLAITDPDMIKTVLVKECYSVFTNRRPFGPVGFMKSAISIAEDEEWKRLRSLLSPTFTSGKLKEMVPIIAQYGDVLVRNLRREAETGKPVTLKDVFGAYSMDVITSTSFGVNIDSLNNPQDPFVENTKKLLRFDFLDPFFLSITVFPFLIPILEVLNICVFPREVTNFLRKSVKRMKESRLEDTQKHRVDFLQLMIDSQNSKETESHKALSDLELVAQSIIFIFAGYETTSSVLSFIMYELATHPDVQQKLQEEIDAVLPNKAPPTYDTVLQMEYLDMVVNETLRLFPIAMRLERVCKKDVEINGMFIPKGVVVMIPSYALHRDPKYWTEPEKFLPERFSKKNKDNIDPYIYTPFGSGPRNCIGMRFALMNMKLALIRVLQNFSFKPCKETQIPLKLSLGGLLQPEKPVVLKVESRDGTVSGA

Q: For `CC1(COc2cc(F)c(C(=O)NS(=O)(=O)C3CC3)cc2C2CC2)CCC2(CC1)CC2`, which IC50 [1] is on record?
A: > 10 µM

Q: And the IC50 [2]?
A: > 10 µM

Q: What about the IC50 [3] of the same compound?
A: 6.1 µM

Q: And the IC50 [4]?
A: > 10 µM

Q: What about the fraction unbound [5] of the same compound?
A: 0.001

Q: What about the fraction unbound [6] of the same compound?
A: 0.001

Q: What about the logD [7] of the same compound?
A: 2.1

Q: And the IC50 [8]?
A: 0.0022 µM

Q: What about the IC50 [9] of the same compound?
A: 0.0037 µM

Q: And the IC50 [10]?
A: 0.05 µM

Q: And the efflux ratio [11]?
A: 1

Q: What about the Papp A→B [12] of the same compound?
A: 3.7 ×10⁻⁶ cm/s

Q: What about the Papp A→B [13] of the same compound?
A: 5.1 ×10⁻⁶ cm/s

Q: And the efflux ratio [14]?
A: 2.1

Q: And the inhibition [15]?
A: 80%

Q: And the Vdss [16]?
A: 0.41 L/kg

Q: What about the Cmax [17] of the same compound?
A: 22 µM

Q: And the half-life [18]?
A: 8.1 h

Q: What about the Vd [19] of the same compound?
A: 0.88 L/kg

Q: And the Cmax [20]?
A: 13 µM

Q: And the bioavailability [21]?
A: 49%

Q: What about the half-life [22] of the same compound?
A: 5.4 h

Q: And the AUC [23]?
A: 83 µM·h

Q: What about the Activity [24] of the same compound?
A: 78%

Q: What about the Activity [25] of the same compound?
A: 86%

Q: What about the concentration at 3.167 h [26] of the same compound?
A: 79 µM

Q: What about the concentration at 3 h [27] of the same compound?
A: 50 µM

Q: What about the Activity [28] of the same compound?
A: Non-Toxic
